Test results taken from patent US8263079B2, “Antibodies against CSF-1R” (ImClone, LLC, priority 2010, dated 2012).

Legend:
DU145 prostate cells = experiment: Prostate tumor combination study, DU145 xenograft; type: in vivo, mouse; conditions: 12 mg/kg IP Q7Dx3, vs saline control, P 0.15
From the text: Inject Nu/nu mice (male, 7-8 weeks of age) subcutaneously with 1.5×10^7 DU145 prostate cells/mouse and allow tumors to reach 300 mm^3 before treatment. Randomize mice into groups of 10 and treat as follows:
Measure tumor volumes and calculate the T/C % for each treatment as the ratio of the relative tumor volumes versus the control group. Analyze tumor volumes using RM ANOVA.

HCC-1954 breast cells = experiment: Breast tumor combination studies, HCC-1954 xenograft; type: in vivo, mouse
From the text: Inject Nu/nu mice (female, 7-8 weeks of age) subcutaneously with 1×10^7 HCC-1954 breast cells/mouse and allow tumors to reach 300 mm^3 before treatment. Randomize mice into groups of 12 and treat as follows:
Measure tumor volumes and calculate the T/C % for each treatment group as the ratio of the relative tumor volumes versus the control group. Analyze tumor volumes using RM ANOVA.

CSF-1R = target: T1, CSF-1R (Homo sapiens, UniProt P07333); experiment: Degradation of CSF-1R in NIH-3T3-CSF-1R cells (Western blot, normalized to actin); type: cell-based
T1 construct: expressed in transfected cells
Method: Seed NIH-3T3-CSF-1R cells at 5×10^5 cells/well in a 12 well plate in 1 mL DMEM media containing 10% FBS and 1 mg/mL geniticin. […] CSF-1 is known to induce internalization and degradation of CSF-1R, thereby acting as a positive control for the experiment. Allow CSF-1 to remain on cells for 1 and 5 hours before collecting cells. […] Aspirate medium, lyse cells and run clarified lysates on gels (as described above). Probe transferred proteins with anti-CSF-1R antibodies to determine the amount of receptor for each condition. Probe the same blots with anti-actin antibodies to normalize protein levels. Quantify CSF-1R and actin levels using the Multi-Gauge program to measure band density on the Western blot. The relative total CSF-1R protein level is represented by the total CSF-1R band density divided by the corresponding actin band density.

With `CC(=O)O[C@@]12CO[C@@H]1C[C@H](O)[C@@]1(C)C(=O)[C@H](O)C3=C(C)[C@@H](OC(=O)[C@H](O)[C@@H](NC(=O)OC(C)(C)C)c4ccccc4)C[C@@](O)([C@@H](OC(=O)c4ccccc4)[C@H]21)C3(C)C` [Docetaxel] the “% T/C” value (DU145 prostate cells) was 59%.

In the case of `COc1cccc2c1C(=O)c1c(O)c3c(c(O)c1C2=O)C[C@@](O)(C(=O)CO)C[C@@H]3O[C@H]1C[C@H](N)[C@H](O)[C@H](C)O1` [Doxorubicin], the “% T/C” value (HCC-1954 breast cells; 8 mg/kg IP Q7Dx2, vs saline control, P 0.008) is reported as 50%.

For `CC(=O)O[C@H]1C(=O)[C@@]2(C)[C@H]([C@H](OC(=O)c3ccccc3)[C@]3(O)C[C@H](OC(=O)[C@H](O)[C@@H](NC(=O)c4ccccc4)c4ccccc4)C(C)=C1C3(C)C)[C@]1(OC(C)=O)CO[C@@H]1C[C@@H]2O` [Paclitaxel], the “% T/C” value (HCC-1954 breast cells; 10 mg/kg IP Q7Dx3, vs saline control, P<0.01) was 60%.

B1: CSF-1: Colony Stimulating Factor-1, CSF-1R ligand, positive control for receptor degradation (protein, listed as Homo sapiens)
chain: MTAPGAAGRCPPTTWLGSLLLLVCLLASRSITEEVSEYCSHMIGSGHLQSLQRLIDSQMETSCQITFEFVDQEQLKDPVCYLKKAFLLVQDIMEDTMRFRDNTPNAIAIVQLQELSLRLKSCFTKDYEEHDKACVRTFYETPLQLLEKVKNVFNETKNLLDKDWNIFSKNCNNSFAECSSQDVVTKPDCNCLYPKAIPSSDPASVSPHQPLAPSMAPVAGLTWEDSEGTEGSSLLPGEQPLHTVDPGSAKQRPPRSTCQSFEPPETPVVKDSTIGGSPQPRPSVGAFNPGMEDILDSAMGTNWVPEEASGEASEIPVPQGTELSPSRPGGGSMQTEPARPSNFLSASSPLPASAKGQQPADVTGTALPRVGPVRPTGQDWNHTPQKTDHPSALLRDPPEPGSPRISSLRPQGLSNPSTLSAQPQLSRSHSSGSVLPLGELEGRRSTRDRRSPAEPEGGPASEGAARPLPRFNSVPLTDTGHERQSEGSFSPQLQESVFHLLVPSVILVLLAVGGLLFYRWRRRSHQEPQRADSPLEQPEGSPLTQDDRQVELPV
For B1, the “CSF-1R levels (degradation)” value (CSF-1R; 100 ng/mL CSF-1, by 5 hours, positive control) was “halved” and the “time to degradation of CSF-1R” value (CSF-1R; 100 ng/mL CSF-1, positive control) was at most 1 h.
